From US9862717B2 (Merck Patent GmbH, priority 2014, dated 2018) come the findings set out here.

The structures appear in SMILES notation.

The target in the first assay is T1, CDK8/CycC (Homo sapiens, UniProt P49336).
T1 construct: purchased Invitrogen PV4402
T1 sequence (P49336 whole entry): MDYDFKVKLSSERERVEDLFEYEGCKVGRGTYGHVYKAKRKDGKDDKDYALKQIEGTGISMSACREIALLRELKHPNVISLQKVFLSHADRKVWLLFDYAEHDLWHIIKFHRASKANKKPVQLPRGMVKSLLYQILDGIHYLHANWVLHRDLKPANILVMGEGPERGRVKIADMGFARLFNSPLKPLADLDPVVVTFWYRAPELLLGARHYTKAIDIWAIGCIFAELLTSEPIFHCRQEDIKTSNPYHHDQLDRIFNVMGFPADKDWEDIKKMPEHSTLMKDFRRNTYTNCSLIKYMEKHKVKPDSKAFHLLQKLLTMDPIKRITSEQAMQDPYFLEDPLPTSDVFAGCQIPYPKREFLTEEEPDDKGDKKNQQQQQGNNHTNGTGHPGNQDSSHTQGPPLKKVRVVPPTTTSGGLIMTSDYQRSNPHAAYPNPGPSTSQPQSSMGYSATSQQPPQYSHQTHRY
T1 sequence (P24863 whole entry partner): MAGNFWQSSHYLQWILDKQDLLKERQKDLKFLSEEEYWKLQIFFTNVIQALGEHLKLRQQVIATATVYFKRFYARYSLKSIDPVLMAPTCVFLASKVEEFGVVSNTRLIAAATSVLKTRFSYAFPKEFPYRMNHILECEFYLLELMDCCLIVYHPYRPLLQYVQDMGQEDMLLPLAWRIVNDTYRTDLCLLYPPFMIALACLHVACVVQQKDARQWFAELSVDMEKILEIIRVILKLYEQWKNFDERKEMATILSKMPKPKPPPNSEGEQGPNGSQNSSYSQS
Description: FRET based Lanthascreen binding competition assay for CDK8 inhibitory activity. As to conditions: CDK8 co-expressed with CycC; class symbols; read-out: IC50. The text has this: Biochemical Assay for CDK8 Inhibitory Activity FRET based Lanthascreen binding competition assay: A dye-labeled ATP competitive probe served as a FRET acceptor upon binding to CDK8 labeled with a strepavidin -Eu-chelate (via a biotinylated anti His antibody). The result was a fluorescence signal at 647 nm. In case this probe was competed by an inhibitor, such a signal cannot be generated any more. The CDK8 used for this assay was a protein co-expressed with CycC. The assay procedure for an assay in a 1536 well plate was performed according to the following: 2 μL CDK8/biotin-anti-His Ab/SA-Eu mix in Assay buffer were pipetted into the wells of a micro plate. 1 μL compound in 20 mM Hepes buffer/5% DMSO was added. The plate was shaken for 30 sec and incubated for 20 min at RT. 2 μL Alexa647-probe in assay buffer were added. The plate was shaken for 30 sec again and incubated for 60 min at RT in the dark. Then the plate was read out on a Perkin Elmer Envision (mode LANCE/TRF, excitation 340 nm emission 650 nm). […] The readouts were fitted to IC50 curves using Genedata Condoseo.
For orientation: Time-resolved FRET reads energy transfer from a long-lived donor to a nearby acceptor.
In general, IC50 refers to the concentration that gives 50% inhibition. For `Cc1n[nH]c2ncc(C(=O)N3CCC[C@H]3c3ccc(C(C)C)cc3)cc12` [compound 196, [(S)-2-(4-Isopropyl-phenyl)-pyrrolidin-1-yl]-(3-methyl-1H-pyrazolo[3,4-b]pyridin-5-yl)-methanone], the IC50 was less than 0.01 µM.
The same measure, in the same setting: in the case of `COc1cccc([C@H]2CCCN2C(=O)c2cnc3[nH]nc(C)c3c2)c1` [compound 224, [(R)-2-(3-Methoxy-phenyl)-pyrrolidin-1-yl]-(3-methyl-1H-pyrazolo[3,4-b]pyridin-5-yl)-methanone] it was 1 to 10 µM; in that of `Cc1n[nH]c2ncc(C(=O)N3CCC(c4ccccc4)C3)cc12` (stereo not shown) [compound 22, (3-Methyl-1H-pyrazolo[3,4-b]pyridin-5-yl)-(3-phenyl-pyrrolidin-1-yl)-methanone], 0.01 to 0.1 µM; in that of `Nc1n[nH]c2ccc(C(=O)N3CCCC3c3ccccc3)cc12` (stereo not shown) [compound 83, (3-Amino-1H-indazol-5-yl)-(2-phenyl-pyrrolidin-1-yl)-methanone], 0.01 to 0.1 µM.
Still for that read-out and setting: in the case of `Cc1n[nH]c2ncc(C(=O)N3CCC[C@H]3c3ccc(Cl)c(F)c3)cc12` [compound 227, [(S)-2-(4-Chloro-3-fluoro-phenyl)-pyrrolidin-1-yl]-(3-methyl-1H-pyrazolo[3,4-b]pyridin-5-yl)-methanone] it was less than 0.01 µM; in that of `Cc1n[nH]c2ncc(C(=O)N3CCCC3c3ccncc3)cc12` (stereo not shown) [compound 32, (3-Methyl-1H-pyrazolo[3,4-b]pyridin-5-yl)-(2-pyridin-4-yl-pyrrolidin-1-yl)-methanone], 0.1 to 1 µM.
Same read-out and setting: in the case of `COC(=O)C1CCN(C(=O)c2cnc3[nH]nc(C)c3c2)C(c2ccccc2)C1` (stereo not shown) [compound 211, 1-(3-Methyl-1H-pyrazolo[3,4-b]pyridine-5-carbonyl)-2-phenyl-piperidine-4-carboxylic acid methyl ester] it was 0.1 to 1 µM; in that of `Cc1n[nH]c2ccc(C(=O)N3CC[C@H]3c3ccc(F)cc3)cc12` [compound 204, [(S)-2-(4-Fluoro-phenyl)-azetidin-1-yl]-(3-methyl-1H-indazol-5-yl)-methanone], less than 0.01 µM.
On to `CC(C)c1ccc([C@H]2CCCN2C(=O)c2ccc3[nH]nc(N)c3c2)cc1` [compound 195, (3-Amino-1H-indazol-5-yl)-[(R)-2-(4-isopropyl-phenyl)-pyrrolidin-1-yl]-methanone], for which the IC50 lay within 0.1 to 1 µM.
Still for that read-out and setting: the figure for `Nc1n[nH]c2ncc(C(=O)N3CCC[C@H]3c3ccc(Br)cc3)cc12` [compound 98, (3-Amino-1H-pyrazolo[3,4-b]pyridin-5-yl)-[(S)-2-(4-bromo-phenyl)-pyrrolidin-1-yl]-methanone] is 0.01 to 0.1 µM; for `Cc1n[nH]c2ncc(C(=O)N3CCC[C@H]3c3cccc(Cl)c3)cc12` [compound 46, [(S)-2-(3-Chloro-phenyl)-pyrrolidin-1-yl]-(3-methyl-1H-pyrazolo[3,4-b]pyridin-5-yl)-methanone] it is 0.01 to 0.1 µM; for `Cc1n[nH]c2ncc(C(=O)N3CCC3c3ccc(F)cc3)cc12` (stereo not shown) [compound 200, [2-(4-Fluoro-phenyl)-azetidin-1-yl]-(3-methyl-1H-pyrazolo[3,4-b]pyridin-5-yl)-methanone] it is 0.1 to 1 µM.
Still for that read-out and setting: the figure for `Cc1n[nH]c2ncc(C(=O)N3CCCC3c3ccccc3)cc12` (stereo not shown) [compound 20, (3-Methyl-1H-pyrazolo[3,4-b]pyridin-5-yl)-(2-phenyl-pyrrolidin-1-yl)-methanone] is less than 0.01 µM; for `Cc1n[nH]c2ncc(C(=O)N3CCNC(c4ccccc4)C3)cc12` (stereo not shown) [compound 182, (3-Methyl-1H-pyrazolo[3,4-b]pyridin-5-yl)-(3-phenyl-piperazin-1-yl)-methanone] it is 1 to 10 µM.
Same read-out and setting: in the case of `Cc1n[nH]c2ncc(C(=O)N3CCCCCC3c3ccc(Cl)cc3)cc12` (stereo not shown) [compound 57, [2-(4-Chloro-phenyl)-azepan-1-yl]-(3-methyl-1H-pyrazolo[3,4-b]pyridin-5-yl)-methanone] it was 0.1 to 1 µM.
As for `CCCc1n[nH]c2ccc(C(=O)N3CCC[C@H]3c3ccc(Br)cc3)cc12` [compound 5, [(S)-2-(4-Bromo-phenyl)-pyrrolidin-1-yl]-(3-propyl-1H-indazol-5-yl)-methanone], the IC50 is less than 0.01 µM.
Turning to `Cc1n[nH]c2ncc(C(=O)N3CCCC3c3ccccn3)cc12` (stereo not shown) [compound 30, (3-Methyl-1H-pyrazolo[3,4-b]pyridin-5-yl)-(2-pyridin-2-yl-pyrrolidin-1-yl)-methanone], the IC50 fell in the range of 0.1 to 1 µM.
As for `Cc1n[nH]c2ncc(C(=O)N3CCCC3c3ccc(Br)cc3)cc12` (stereo not shown) [compound 1, [2-(4-Bromo-phenyl)-pyrrolidin-1-yl]-(3-methyl-1H-pyrazolo[3,4-b]pyridin-5-yl)-methanone], the IC50 is less than 0.01 µM.
Take `Cc1n[nH]c2ncc(C(=O)N3CC[C@@H](C)[C@H]3c3ccc(C(F)(F)F)cc3)cc12` [compound 172, (3-Methyl-1H-pyrazolo[3,4-b]pyridin-5-yl)-[(2S,3R)-3-methyl-2-(4-trifluoromethyl-phenyl)-pyrrolidin-1-yl]-methanone]: the IC50 is less than 0.01 µM.
The same measure, in the same setting: the figure for `Cc1n[nH]c2cc(F)c(C(=O)N3CCC[C@@H]3c3ccc(Cl)cc3)cc12` [compound 203, [(R)-2-(4-Chloro-phenyl)-pyrrolidin-1-yl]-(6-fluoro-3-methyl-1H-indazol-5-yl)-methanone] is 1 to 10 µM; for `Cc1n[nH]c2ncc(C(=O)N3C[C@@H](C(N)=O)[C@H](c4ccc(Cl)cc4)C3)cc12` [compound 185, (3S,4R)-4-(4-Chloro-phenyl)-1-(3-methyl-1H-pyrazolo[3,4-b]pyridine-5-carbonyl)-pyrrolidine-3-carboxylic acid amide] it is 1 to 10 µM.
For the molecule `Cc1n[nH]c2ncc(C(=O)N3CC(O)CC3c3ccc(F)cc3)cc12` (stereo not shown) [compound 127, [2-(4-Fluoro-phenyl)-4-hydroxy-pyrrolidin-1-yl]-(3-methyl-1H-pyrazolo[3,4-b]pyridin-5-yl)-methanone], the IC50 is 0.1 to 1 µM.

The same assay, now with this note: IC50 [μM], CDK8 co-expressed with CycC; class symbols.
Take `Nc1n[nH]c2ccc(C(=O)N3CCCC3c3ccc(Br)cc3)cc12` (stereo not shown) [compound 74, (3-Amino-1H-indazol-5-yl)-[2-(4-bromo-phenyl)-pyrrolidin-1-yl]-methanone]: the IC50 is less than 0.01 µM.
`Nc1n[nH]c2ccc(C(=O)N3CC[C@@H]3c3ccc(F)cc3)cc12` [compound 135, (3-Amino-1H-indazol-5-yl)-[(R)-2-(4-fluoro-phenyl)-azetidin-1-yl]-methanone] gave a 50% inhibitory concentration (IC50) of 0.1 to 1 µM.
In turn, `Nc1n[nH]c2ccc(C(=O)N3CCC(c4ccc(Cl)cc4)C3)cc12` (stereo not shown) [compound 117, (3-Amino-1H-indazol-5-yl)-[3-(4-chloro-phenyl)-pyrrolidin-1-yl]-methanone] returned an IC50 of 0.01 to 0.1 µM.
Still for that read-out and setting: in the case of `Nc1n[nH]c2ccc(C(=O)N3CC[C@H]3c3ccc(F)cc3)cc12` [compound 134, (3-Amino-1H-indazol-5-yl)-[(S)-2-(4-fluoro-phenyl)-azetidin-1-yl]-methanone] it was 0.01 to 0.1 µM.
Molecule `Nc1n[nH]c2ccc(C(=O)N3CCCC3c3ccc(F)cc3)cc12` (stereo not shown) [compound 85, (3-Amino-1H-indazol-5-yl)-[2-(4-fluoro-phenyl)-pyrrolidin-1-yl]-methanone] had a 50% inhibitory concentration (IC50) of less than 0.01 µM.
Still for that read-out and setting: in the case of `Cc1n[nH]c2ccc(C(=O)N3CCC[C@H]3c3ccc(Cl)cc3)cc12` [compound 48, [(S)-2-(4-Chloro-phenyl)-pyrrolidin-1-yl]-(3-methyl-1H-indazol-5-yl)-methanone] it was less than 0.01 µM.
